From ChEMBL document CHEMBL3425421, “Chromone derivatives from a sponge-derived strain of the fungus Corynespora cassiicola” (J Nat Prod, 2015)
The source made the active and inactive calls.

Columns and labels:
Staphylococcus = test: Antibacterial activity against Staphylococcus albus assessed as absence of growth after 18 hrs by conventional broth dilution assay; format: functional, organism-based
Pseudomonas putida = test: Antibacterial activity against Pseudomonas putida assessed as absence of growth after 18 hrs by conventional broth dilution assay; format: functional, organism-based
K562 = test: Cytotoxicity against human K562 cells by MTT assay; format: functional, cell-based
Amphibalanus amphitrite = test: Antifouling activity against Balanus amphitrite Darwin; format: functional, organism-based
[1] = system: Tetragenococcus halophilus; test: Antibacterial activity against Tetragenococcus halophilus assessed as absence of growth after 18 hrs by conventional broth dilution assay; format: functional
[2] = biological target: Acetylcholinesterase (Electrophorus electricus) (UniProt O42275); test: Inhibition of electric eel AChE using acetylthiocholine iodide as substrate by Ellman's method
Vibrio parahaemolyticus = test: Antibacterial activity against Vibrio parahaemolyticus assessed as absence of growth after 18 hrs by conventional broth dilution assay; format: functional, organism-based
Bacillus cereus = test: Antibacterial activity against Bacillus cereus assessed as absence of growth after 18 hrs by conventional broth dilution assay; format: functional, organism-based
Bacillus subtilis = test: Antibacterial activity against Bacillus subtilis assessed as absence of growth after 18 hrs by conventional broth dilution assay; format: functional, organism-based
Staphylococcus aureus = test: Antibacterial activity against Staphylococcus aureus assessed as absence of growth after 18 hrs by conventional broth dilution assay; format: functional, organism-based
A549 = test: Cytotoxicity against human A549 cells by MTT assay; format: functional, cell-based
[3] = biological target: T1, DNA topoisomerase (Bos taurus) (UniProt A0JN73); test: Inhibition of calf thymus Topoisomerase 1 relaxation activity by plasmid relaxation assay
T1 sequence (whole entry): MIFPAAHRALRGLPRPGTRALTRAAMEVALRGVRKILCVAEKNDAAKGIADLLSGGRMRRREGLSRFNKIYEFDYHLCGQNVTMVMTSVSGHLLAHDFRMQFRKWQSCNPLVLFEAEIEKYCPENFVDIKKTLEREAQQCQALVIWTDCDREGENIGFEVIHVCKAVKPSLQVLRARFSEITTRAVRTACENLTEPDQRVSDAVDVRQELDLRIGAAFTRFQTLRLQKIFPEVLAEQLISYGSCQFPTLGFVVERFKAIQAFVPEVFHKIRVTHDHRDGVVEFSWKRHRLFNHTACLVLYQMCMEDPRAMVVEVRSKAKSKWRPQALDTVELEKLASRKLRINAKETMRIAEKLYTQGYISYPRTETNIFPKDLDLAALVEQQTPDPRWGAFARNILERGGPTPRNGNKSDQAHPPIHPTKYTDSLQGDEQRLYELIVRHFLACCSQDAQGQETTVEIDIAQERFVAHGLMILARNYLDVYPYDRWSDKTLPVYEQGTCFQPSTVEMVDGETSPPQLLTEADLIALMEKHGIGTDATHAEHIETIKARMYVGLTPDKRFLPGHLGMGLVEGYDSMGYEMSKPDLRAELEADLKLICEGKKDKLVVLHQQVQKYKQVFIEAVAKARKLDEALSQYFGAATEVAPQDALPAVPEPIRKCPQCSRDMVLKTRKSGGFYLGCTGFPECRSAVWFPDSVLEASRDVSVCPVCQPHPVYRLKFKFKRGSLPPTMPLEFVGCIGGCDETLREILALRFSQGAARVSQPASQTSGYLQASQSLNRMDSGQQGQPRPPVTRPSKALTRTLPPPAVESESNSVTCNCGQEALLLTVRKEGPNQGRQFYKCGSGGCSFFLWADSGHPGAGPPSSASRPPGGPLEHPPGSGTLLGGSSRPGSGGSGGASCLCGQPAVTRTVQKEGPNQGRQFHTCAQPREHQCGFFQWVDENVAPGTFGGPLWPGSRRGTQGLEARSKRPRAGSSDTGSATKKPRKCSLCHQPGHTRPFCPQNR

HL-60 = test: Cytotoxicity against human HL60 cells by MTT assay; format: functional, cell-based
HeLa = test: Cytotoxicity against human HeLa cells by MTT assay; format: functional, cell-based

Measured: inhibition

Acetylcholinesterase (Electrophorus electricus), sequence (O42275 24-633 limits assumed): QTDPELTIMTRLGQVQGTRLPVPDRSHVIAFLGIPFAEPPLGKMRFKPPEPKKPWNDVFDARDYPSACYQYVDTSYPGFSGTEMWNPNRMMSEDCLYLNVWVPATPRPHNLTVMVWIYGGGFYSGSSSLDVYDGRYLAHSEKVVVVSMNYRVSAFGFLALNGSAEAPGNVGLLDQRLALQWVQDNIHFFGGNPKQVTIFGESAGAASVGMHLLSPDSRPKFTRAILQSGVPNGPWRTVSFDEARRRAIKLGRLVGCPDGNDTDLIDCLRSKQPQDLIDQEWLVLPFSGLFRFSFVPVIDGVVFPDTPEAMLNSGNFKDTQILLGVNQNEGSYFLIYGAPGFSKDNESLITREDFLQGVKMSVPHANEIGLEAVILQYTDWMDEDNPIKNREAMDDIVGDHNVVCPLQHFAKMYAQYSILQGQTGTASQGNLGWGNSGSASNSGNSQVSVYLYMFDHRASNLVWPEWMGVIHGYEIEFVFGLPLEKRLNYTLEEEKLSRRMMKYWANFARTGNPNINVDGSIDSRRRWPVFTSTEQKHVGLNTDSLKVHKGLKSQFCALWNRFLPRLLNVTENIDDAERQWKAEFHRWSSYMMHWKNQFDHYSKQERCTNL

CC(=O)C[C@H]1CC(=O)c2c(CC(=O)O)cc(O)cc2O1
inactive: all assays above

CCOC(=O)Cc1cc(O)cc2oc(C)cc(=O)c12
inactive: all assays above
